Measured values taken from US20140171417A1, “TRICYCLIC COMPOUNDS” (NOVARTIS AG, priority 2012, published 2014).

Each compound was assayed against T1, CFTR (Homo sapiens, UniProt P13569) (assay: IonWorks Quattro assay (CFTR Inhibitor Assay), whole-cell planar patch clamp). Details: inward current (−100 mV); CHO cells stably expressing WT-CFTR; CFTR activated by 10 μM forskolin; test compound incubated 10 min.
T1 construct: expressed in transfected cells
Assay type: cell-based
Excerpt: CFTR activity can be quantified by electrophysiology methods, using the whole-cell configuration of the patch clamp technique (Hamill O, Marty A, Neher E, Sakmann B and Sigworth F. ‘Improved patch-clamp techniques for high resolution current recording from cells and cell-free membrane patches.’ Pflugers Archive 1981 391: 85-100). This assay directly measures the currents associated with chloride flow through CFTR channels whilst either maintaining or adjusting the transmembrane voltage. This assay can use either single glass micropipettes or parallel planar arrays to measure CFTR activity from native or recombinant cell systems. Currents measured using parallel planar arrays can be quantified using an appropriately equipped instrument such as the IonWorks Quattro (Molecular Devices Corporation, Sunnyvale, Calif.). The Quattro system can measure CFTR currents from either a single cell per recording well (HT configuration) or alternatively from a population of 64 cells per well (Population Patch Clamp PPC) (Finkel A, Wittel A, Yang N, Handran S, Hughes J, Costantin J. ‘Population patch clamp improves data consistency and success rates in the measurement of ionic currents.’ J Biomol Screen. 2006 August; 11 (5):488-96).
Chinese hamster ovary (CHO) cells stably expressing WT-CFTR channels were used for the IonWorks Quattro experiments. Cells were maintained at 37° C. in 5% v/v CO2 at 100% humidity in MEM alpha medium supplemented with 10% (v/v) FCS, 100 U/mL Penicillin/Streptomycin, and 100 μg/L methotrexate. For experiments, cells were grown in 225 cm^2 tissue culture flasks until almost confluent. Cells were removed from the flask using trypsin-EDTA and resuspended in extracellular recording solution for immediate experimentation.
Cells, at a density of 1.5-2 million per mL, were placed on the Quattro system, added to the planar patch plate and seals allowed to establish for 5-10 mins. After assessing seal resistances (typically >50 MΩ), whole-cell access was obtained by perforation with 100 μg/mL amphotericin B. Baseline currents were measured by a pre-compound scan obtained by application of a voltage ramp from −100 to +100 mV. CFTR was activated by the addition of 10 μM forskolin to each of the 384 wells of the patch plate. After 5 min incubation the post-compound 1 currents were measured, again by application of a voltage ramp from −100 to +100 mV. Test compounds, diluted from 10 mM stocks in DMSO in extracellular solution were then added to the patch plate and were incubated for a further 10 min. The post-compound 2 currents were measured by the application of the same voltage ramp from −100 to +100 mV. The inhibition of CFTR was determined from the difference in current between the forskolin addition (post-compound 1) and the test compound (post-compound 2). This was determined at both −100 mV and +100 mV which represents the inward and outward current respectively.
Extracellular solution (ECS): 145 mM NaCl, 4 mM CsCl, 5 mM D-glucose, 10 mM TES, 1 mM CaCl2, 1 mM MgCl2, pH 7.4 NaOH
Intracellular solution (ICS): 113 mM L-Aspartic acid, 113 mM CsOH, 27 mM CsCl, 1 mM NaCl, 1 mM MgCl2, 1 mM EGTA, 10 mM TES. pH 7.2 with CsOH. Filter sterilized before use.

T1 sequence (P13569 whole entry): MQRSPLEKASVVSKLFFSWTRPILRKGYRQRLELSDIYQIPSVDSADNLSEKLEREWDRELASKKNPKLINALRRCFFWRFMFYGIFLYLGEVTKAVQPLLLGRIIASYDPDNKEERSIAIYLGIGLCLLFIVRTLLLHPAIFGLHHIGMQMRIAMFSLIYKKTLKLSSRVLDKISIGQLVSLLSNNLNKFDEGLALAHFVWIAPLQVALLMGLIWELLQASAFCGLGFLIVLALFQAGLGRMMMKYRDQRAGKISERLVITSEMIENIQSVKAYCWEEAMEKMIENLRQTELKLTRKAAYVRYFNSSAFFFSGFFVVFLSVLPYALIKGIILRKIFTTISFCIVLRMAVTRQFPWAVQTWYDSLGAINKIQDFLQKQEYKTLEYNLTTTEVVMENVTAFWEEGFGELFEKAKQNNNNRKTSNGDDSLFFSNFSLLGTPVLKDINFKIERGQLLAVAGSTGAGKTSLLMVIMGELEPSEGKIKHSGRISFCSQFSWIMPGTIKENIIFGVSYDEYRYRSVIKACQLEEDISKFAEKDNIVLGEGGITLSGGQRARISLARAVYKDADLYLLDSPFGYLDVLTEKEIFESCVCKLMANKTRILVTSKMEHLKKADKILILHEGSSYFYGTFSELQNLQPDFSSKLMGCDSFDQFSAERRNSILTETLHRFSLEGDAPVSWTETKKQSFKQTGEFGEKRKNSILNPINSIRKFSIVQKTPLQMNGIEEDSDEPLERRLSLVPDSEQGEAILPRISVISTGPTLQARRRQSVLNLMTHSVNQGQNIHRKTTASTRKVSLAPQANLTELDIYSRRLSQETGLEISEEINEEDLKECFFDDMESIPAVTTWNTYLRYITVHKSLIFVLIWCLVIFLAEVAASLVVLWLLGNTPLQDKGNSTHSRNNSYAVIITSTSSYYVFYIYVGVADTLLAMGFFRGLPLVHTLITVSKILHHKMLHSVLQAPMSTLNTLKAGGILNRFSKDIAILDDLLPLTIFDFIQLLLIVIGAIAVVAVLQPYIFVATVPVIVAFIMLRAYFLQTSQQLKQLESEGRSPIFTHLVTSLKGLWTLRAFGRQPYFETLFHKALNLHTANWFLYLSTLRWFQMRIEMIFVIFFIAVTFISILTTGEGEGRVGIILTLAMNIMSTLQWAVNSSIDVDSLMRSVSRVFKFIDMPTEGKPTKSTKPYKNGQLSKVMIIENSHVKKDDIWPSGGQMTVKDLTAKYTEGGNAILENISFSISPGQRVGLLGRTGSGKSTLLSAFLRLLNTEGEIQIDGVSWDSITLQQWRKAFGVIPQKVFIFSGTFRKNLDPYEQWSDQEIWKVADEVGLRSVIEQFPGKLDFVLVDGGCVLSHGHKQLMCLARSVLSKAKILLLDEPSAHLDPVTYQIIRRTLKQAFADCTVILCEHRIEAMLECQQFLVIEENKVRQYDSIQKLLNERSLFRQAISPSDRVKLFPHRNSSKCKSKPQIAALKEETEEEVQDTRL

For Cn1c(=O)c2c(-c3cccc(C#N)c3)n3c(c2n(C)c1=O)[C@H](c1nc(Cl)cs1)C[C@@H](CO)C3 (single isomer, unassigned) [Example 23.1a, 3-(10-(4-chlorothiazol-2-yl)-8-(hydroxymethyl)-1,3-dimethyl-2,4-dioxo-1,2,3,4,7,8,9,10-octahydropyrimido[4,5-a]indolizin-5-yl)benzonitrile], which IC50 is on record?
Its IC50 is 0.1 µM.

Cn1c(=O)c2c(-c3cccc(F)c3)n3c(c2n(C)c1=O)[C@H](c1nc(Cl)cs1)C[C@@H](CO)C3 (single isomer, unassigned) [Example 23a, 10-(4-chlorothiazol-2-yl)-5-(3-fluorophenyl)-8-(hydroxymethyl)-1,3-dimethyl-7,8,9,10-tetrahydropyrimido[4,5-a]indolizine-2,4(1H,3H)-dione] was tested. Which IC50 did it give?
Its IC50 is 0.05 µM.

Which IC50 does the source give for Cc1ccc([C@@H]2CC[C@@H](Cn3nccn3)n3c(-c4ccccc4)c4c(=O)n(C)c(=O)n(C)c4c32)o1 (single isomer, unassigned) [Example 24] here?
Its IC50 is 1.74 µM.

How did the IC50 turn out when COCC(=O)NC[C@H]1Cn2c(-c3nc(C)cs3)c3c(=O)n(C)c(=O)n(C)c3c2[C@H](c2ccc(Cl)o2)S1 (single isomer, unassigned) [Example 26.1a, N-((10-(5-chlorofuran-2-yl)-1,3-dimethyl-5-(4-methylthiazol-2-yl)-2,4-dioxo-2,3,4,7,8,10-hexahydro-1H-pyrimido[4′,5′:3,4]pyrrolo[2,1-c][1,4]thiazin-8-yl)methyl)-2-methoxyacetamide] was run?
The IC50 was 0.23 µM.

CC(=O)NC[C@H]1Cn2c(-c3nc(C)cs3)c3c(=O)n(C)c(=O)n(C)c3c2[C@H](c2ccc(Cl)o2)S1 (single isomer, unassigned) [Example 26.3a, N-((10-(5-chlorofuran-2-yl)-1,3-dimethyl-5-(4-methylthiazol-2-yl)-2,4-dioxo-2,3,4,7,8,10-hexahydro-1H-pyrimido[4′,5′:3,4]pyrrolo[2,1-c][1,4]thiazin-8-yl)methyl)acetamide] was tested. Which IC50 did it give?
Its IC50 is 0.45 µM.

Which IC50 does the source give for Cc1csc(-c2c3c(=O)n(C)c(=O)n(C)c3c3n2C[C@H](CNS(C)(=O)=O)S[C@H]3c2ccc(Cl)o2)n1 (single isomer, unassigned) [Example 26a, N-((10-(5-chlorofuran-2-yl)-1,3-dimethyl-5-(4-methylthiazol-2-yl)-2,4-dioxo-2,3,4,7,8,10-hexahydro-1H-pyrimido[4′,5′:3,4]pyrrolo[2,1-c][1,4]thiazin-8-yl)methyl)methanesulfonamide] here?
The IC50 was 0.15 µM.

How did the IC50 turn out when Cc1csc(-c2c3c(=O)n(C)c(=O)n(C)c3c3n2C[C@@H](Cn2ccnc2)S[C@@H]3c2ccc(Cl)o2)n1 (single isomer, unassigned) [Example 28a, 8-((1H-imidazol-1-yl)methyl)-10-(5-chlorofuran-2-yl)-1,3-dimethyl-5-(4-methylthiazol-2-yl)-7,8-dihydro-1H-pyrimido[4′,5′:3,4]pyrrolo[2,1-c][1,4]thiazine-2,4(3H,10H)-dione] was run?
The IC50 was 0.11 µM.

For Cc1csc(-c2c3c(=O)n(C)c(=O)n(C)c3c3n2C[C@@H](CN2CCCC2=O)S[C@@H]3c2ccc(Cl)o2)n1 (single isomer, unassigned) [Example 30.1a, 10-(5-chlorofuran-2-yl)-1,3-dimethyl-5-(4-methylthiazol-2-yl)-8-((2-oxopyrrolidin-1-yl)methyl)-7,8-dihydro-1H-pyrimido[4′,5′:3,4]pyrrolo[2,1-c][1,4]thiazine-2,4(3H,10H)-dione], which IC50 is on record?
Its IC50 is 0.25 µM.

Cc1csc(-c2c3c(=O)n(C)c(=O)n(C)c3c3n2C[C@@H](CN2CCOC2=O)S[C@@H]3c2ccc(Cl)o2)n1 (single isomer, unassigned) [Example 30a, 10-(5-chlorofuran-2-yl)-1,3-dimethyl-5-(4-methylthiazol-2-yl)-8-((2-oxooxazolidin-3-yl)methyl)-7,8-dihydro-1H-pyrimido[4′,5′:3,4]pyrrolo[2,1-c][1,4]thiazine-2,4(3H,10H)-dione] was tested. Which IC50 did it give?
Its IC50 is 0.16 µM.

Which IC50 does the source give for Cn1c(=O)c2c(-c3cccc(C#N)c3)n3c(c2n(C)c1=O)C(c1nc(Cl)cs1)CCCC3 (single isomer, unassigned) [Example 31, 3-(11-(4-chlorothiazol-2-yl)-1,3-dimethyl-2,4-dioxo-2,3,4,7,8,9,10,11-octahydro-1H-pyrimido[4′,5′:3,4]pyrrolo[1,2-a]azepin-5-yl)benzonitrile] here?
Its IC50 is 1.45 µM.

Which IC50 does the source give for Cn1c(=O)c2c(-c3ccccc3)n3c(c2n(C)c1=O)[C@H](c1ccc(Cl)o1)SCC3 [Example 1.1.1, (R)-10-(5-chlorofuran-2-yl)-1,3-dimethyl-5-phenyl-7,8-dihydro-1H-pyrimido[4′,5′:3,4]pyrrolo[2,1-c][1,4]thiazine-2,4(3H,10H)-dione] here?
The IC50 was 0.63 µM.

Cc1ccc([C@@H]2CCCn3c(-c4ccccc4)c4c(=O)n(C)c(=O)n(C)c4c32)o1 [Example 6.3, (R)-1,3-Dimethyl-10-(5-methylfuran-2-yl)-5-phenyl-7,8,9,10-tetrahydropyrimido[4,5-a]indolizine-2,4(1H,3H)-dione] was tested. Which IC50 did it give?
The IC50 was 2.24 µM.

With Cc1ccc([C@H]2CCCn3c(-c4ccccc4)c4c(=O)n(C)c(=O)n(C)c4c32)o1 [Example 6.4, (S)-1,3-Dimethyl-10-(5-methylfuran-2-yl)-5-phenyl-7,8,9,10-tetrahydropyrimido[4,5-a]indolizine-2,4(1H,3H)-dione] as the compound, how does the IC50 read?
The IC50 was over 30 µM.

Cn1c(=O)c2c(-c3cccc(C#N)c3)n3c(c2n(C)c1=O)[C@H](c1nc(Cl)cs1)CCC3 [Example 13a, (R)-3-(10-(4-chlorothiazol-2-yl)-1,3-dimethyl-2,4-dioxo-1,2,3,4,7,8,9,10-octahydropyrimido[4,5-a]indolizin-5-yl)benzonitrile] was tested. Which IC50 did it give?
Its IC50 is 0.07 µM.

Cn1c(=O)c2c(-c3cccc(F)c3)n3c(c2n(C)c1=O)[C@H](c1nc(Cl)cs1)C[C@@H]3CO [Example 27a, (7R,9R)-9-(4-chlorothiazol-2-yl)-5-(3-fluorophenyl)-7-(hydroxymethyl)-1,3-dimethyl-8,9-dihydro-1H-pyrimido[4,5-a]pyrrolizine-2,4(3H,7H)-dione] was tested. Which IC50 did it give?
The IC50 was 0.15 µM.
